{"source": "patent US20090269309A1", "about": "“Retinoic acid stimulates differentiation of pancreatic progenitor cells into insulin producing cells” (priority 2004, published 2009)", "tested_on": "mouse embryonic day (e) 10 dorsal pancreatic buds", "assay": "Culture of e10 dorsal pancreatic bud explants with or without RA, endocrine cells scored by immunohistochemistry", "assay_type": "cell-based", "text": "From mating between C57BL/6 (wild-type) mice, pregnant females were sacrificed ten days after the appearance of a vaginal plug, and embryos collected. The ten-day-old embryos were dissected in L15 medium (Gibco) using forceps and tungsten needles. The L15 medium is […]\nAt this embryonic stage the dorsal pancreatic bud can be seen as a round structure forming from the gut endoderm that can be dissected out from the surrounding tissues (see FIG. 3). Using a mouth pipette individual isolated pancreatic buds were placed on 0.4 μm, pore 3,28 12 mm Millicell-CM PICM01250 filters (Millipore) that were subsequently placed in a twenty-four well plate (Costar) where each well contained 400 μl culture medium, consisting of DMEM-glutamax1 (Gibco), 1×N2-supplement (Gibco) and PEST (Gibco).\nThe explants were cultured for six days in 37° C. and 5% CO2 in culture medium alone (control explants) or with 25 nM all-trans retinoic acid (Sigma) added to the medium.\nAfter six days of culture the explants were washed twice in PBS, fixated in 4% PFA in PBS for 25 minutes followed by two more washes in PBS. Using a small pair of scissors the filter was cut around the explant and the filter piece with the explant attached to it was placed in Tissue Tek O.C.T. Compound 4583 (Sakura). In the Tissue Tek the explant was gently removed from the filter using tungsten needles. A small drop of Tissue Tek was applied on a glass slide (Menzel) and the explant was placed in the drop using forceps and tungsten needles. The glass slides were put on dry ice to freeze the drops and were then stored in −80° C.\nThe frozen explants were sectioned using a Cryostat into […] thick sections that were collected on Superfrost Plus glass slides (Menzel). All explants from one experiment were put on the same slides. The slides were placed in a hybridisation chamber and blocked with blocking solution, TBST (50 mMT nsHCl, pH7.4, 150 mM MaCl, 0,1% Triton X-100)+10% FCS (fetal calf serum), for one hour. After blocking, primary antibodies diluted in fresh blocking solution were added and the slides were incubated overnight at 4° C. The following primary antibodies were used: guinea-pig α insulin (Linco) diluted 1/200, rabbit α glucagon (Euro Diagnostica) diluted 1/1000 and rabbit anti-ngn3 (raised against a GST-ngn3 fusion protein by AgriSeraAB) diluted 1/400. The slides were washed 3×5 minutes in TBST before incubation with secondary antibodies; a guinea-pig alexa488 (Molecular Probes) diluted 1/1000 and α rabbitCy3 (Jackson) diluted 1/400, for one hour in room temperature. The slides were then washed again 3×5 minutes in TBST before they were mounted using Vectashield with DAPI (Vector). The slides were analysed using a Nikon fluorescence microscope. The cells stained for insulin and glucagos respectively were counted and divided by the total number of cells that was counted using the DAPI staining which stains DNA i.e. every cell nucleus.\nTo investigate a role for RA in pancreatic cell differentiation mouse embryonic day (e) 10 dorsal pancreatic buds, which primarily contain pancreatic stem cells and very few differentiated pancreatic cells, were cultured in serum free media with or without RA for six days. The in vitro cultured explants were then scored for the appearance of endocrine cells expressing glucagon and insulin by immunohistochemistry using antibodies specific for glucagon and insulin. In vitro cultivation in media alone generated a few glucagon-(˜10% of total cells) and insulin-positive (˜5% of total cells) cells but the majority of cells were of non-endocrine origin (FIGS. 1 A-C and data not shown). […] Moreover, RA preferentially stimulated the differentiation of insulin-positive cells, which increased ˜4.5 fold, whereas glucagon-positive cells increased only ˜1,5 fold (FIG. 1D-F).", "note": "Where “and” joins values, the source holds several entries; their conditions need not be identical. Equal values may be shown once.", "data": [{"smiles": "CC1=C(/C=C/C(C)=C/C=C/C(C)=C/C(=O)O)C(C)(C)CCC1", "note": "[RA, all-trans retinoic acid]", "values": [{"measurement": "increase in the number of ngn3-positive cells/total number of cells", "setting": "25 nM RA, 2 and 4 days of culture, versus medium alone", "result": "five-fold increase"}, {"measurement": "effect on the number of glucagon cells", "setting": "25 nM RA, versus medium alone, N=6", "result": "No significant effect"}, {"measurement": "increase in the number of insulin positive cells/total number of cells", "setting": "25 nM all-trans RA, six days of culture, versus explants in medium alone", "result": "> 3 fold and ~4.5 fold"}, {"measurement": "increase in endocrine cells", "setting": "25 nM all-trans RA, six days, versus explants cultured in media alone", "result": "more than 2 fold"}, {"measurement": "increase in glucagon-positive cells", "setting": "25 nM all-trans RA, six days, versus media alone", "result": "~1,5 fold"}, {"measurement": "endocrine cells (glucagon- and insulin-positive) of total cells", "setting": "25 nM all-trans RA, six days, media alone ~15%", "result": "~37", "unit": "%"}]}]}
